Results from publication PMC10117725, “From an Hsp90 - binding protein to a peptide drug” (microLife, 2022).
Where no end group is shown, it is not given here.

How the values were obtained:
MONO-MAC-6 (MM6) cells = experiment: MTT cytotoxicity in MM6 cells; type: cell-based, human; conditions: 24 h
Method: MTT (3-(4,5-dimethylthiazol-2-yl)-2,5-diphenyl tetrazolium bromide) assay was employed to analyze the cytotoxicity of peptides and geldanamycin to the cells. 5 × 10^5 cells were seeded in a 96 flat bottom well plate and incubated for 2.5 or 24 h at 37°C with 5% CO2. The cells were then treated with increasing concentration (0 to 200 µM) of peptides or geldanamycin for 24 h. After the incubation, 10 μl of the MTT labelling reagent is added to each well to attain a final concentration 0.5 mg/ml, followed by 4 h incubation. Metabolically active cells convert the yellow tetrazolium salt to purple formazan crystals, which were solubilized using the solubilization solution (DMSO) and measured for absorbance at λmax/λref–570/690 nm (Saising et al. [2018]).

[1] = test system: human peripheral blood mononuclear cells (PBMCs); experiment: Cytokine induction in PBMCs (bead-based immunoassay); type: cell-based; conditions: IL-6, IL10, IL-12p70, IL12-p40, IL-23, TNFα, IL-1ß, IL-1RA, IP-10, TARC; 20 h
Method: Human peripheral blood mononuclear cells (PBMCs) from buffy coat blood samples of healthy donors were stimulated with the indicated doses of L15 and L13 for 20 h. For the subsequent bead-based immunoassay, the cell culture supernatants of a total of four buffy coats per immunoassay were used. Each of the stimulations was performed in biological duplicates. The secreted cytokines were then identified and quantified using the immunofluorescent bead-based immunoassay LEGENDplex® Human Macrophage/Microglia Panel (13-plex) and the corresponding Data Analysis Software from BioLegend. Muramyl Dipeptide (MDP) which activates the NOD-2 receptors was used as the positive control.

| Sequence | percentage of viable cells, MM6, 1 µM (MONO-MAC-6 (MM6) cells; 1 µM) | percentage of viable cells, MM6, 200 µM (MONO-MAC-6 (MM6) cells; 200 µM) | cytokine inducing activity in PBMCs [1] |
| --- | --- | --- | --- |
| GHYFVTTFY [L13] | 106.71 ± 6.40% | 82.43 ± 8.59% | – |
| TAKGHYFVTTFYRNG [L15] | – | – | relatively inert |
